Measured values taken from US5739131A, “Benzene derivatives and pharmaceutical composition” (Kureha Chemical Industry Co., Ltd., priority 1994, dated 1998).

What was measured:
[1] = biological target: T1, angiotensin II receptor subtype 2 (AT2) (Bos taurus, UniProt G5E6F7); experiment: Binding assay, angiotensin II receptor subtype 2 (AT2); set-up: species or system bovine (cerebellar cortex); details: 100 μM, AT2, bovine cerebellar cortex, 37° C. 1 hour; read-out: Binding inhibition % in 100 μm, AT2
T1 construct: receptor: from cerebellar cortex in bovine; from tissue; host or cells: bovine cerebellar cortex
T1 sequence (G5E6F7 1-362): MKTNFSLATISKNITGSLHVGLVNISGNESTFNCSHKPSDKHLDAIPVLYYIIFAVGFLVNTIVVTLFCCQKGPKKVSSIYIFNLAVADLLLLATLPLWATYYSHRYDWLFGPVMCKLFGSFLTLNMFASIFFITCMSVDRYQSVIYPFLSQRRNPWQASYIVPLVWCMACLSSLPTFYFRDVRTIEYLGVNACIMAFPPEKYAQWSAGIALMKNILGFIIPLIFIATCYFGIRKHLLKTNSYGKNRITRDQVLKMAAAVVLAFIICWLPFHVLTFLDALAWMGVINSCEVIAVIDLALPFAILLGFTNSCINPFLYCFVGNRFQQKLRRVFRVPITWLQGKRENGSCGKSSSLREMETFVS
Method: (§1) In this Example, the affinity to the angiotensin II receptor subtype 1 or subtype 2 was evaluated by a binding assay in accordance with the method described in Biochem. Pharmacol., 33, 4057-4062 (1984).
(§2) Specifically, the measurement of the total binding in the presence of each drug was performed as follows:
(§3) A mixture (final volume=0.25 ml) of a drug in a given concentration (the drug was dissolved in DMSO, and diluted to a double volume with a buffer attached to a drug discovery system to prepare sample for the assay; 0.025 ml), a tracer (0.025 ml), and receptors (0.2 ml) was incubated [in the case of the angiotensin II receptor subtype 1 (AT1), at room temperature for 3 hours, and in the case of the subtype 2 (AT2), at 37° C. for 1 hour]. Then, the reaction mixture was filtered with suction (GF/C filter was used in AT1, and GF/B filter was used in AT2). The filter papers after filtration with suction (the tracer bound to the receptors) were counted by a γ-well counter (ARC-500, Aloka). The non-specific bindings were measured by repeating the above method, except that a large excess amount of a displacer was added. The specific binding of the drug in the given concentration was calculated by subtracting the non-specific binding from the total binding, respectively.
(§4) In AT1 and AT2, the percentages to inhibit the bindings of radioactive ligands (tracer) to receptors by the drugs to be tested (IC50 value of concentration to show 50% inhibition, or binding inhibition % in 100 μM) were measured, using the drugs to be tested and control drugs in the given concentration.
receptor: from cerebellar cortex in bovine
tracer: ^125 ITyr^4angiotensin II
control drug: angiotensin II (human)
(displacer): angiotensin II (human)

[2] = tested on: kidney disease model rats; experiment: Action to survival time of kidney diseased animals; assay type: in vivo, Sprague-Dawley female rats; details: 20 mg/kg/day per os, observation eight weeks (upper limit); control 5.0
Method: The kidney disease model rats were prepared as in Example 115. Twenty-five groups (8 rats per group) were prepared in a manner so that there was no major difference between the groups in the serum creatinine value and the urea nitrogen value indicating renal function. The rats in each group were allowed to freely take up feed and water. […] To the rats in the control group, only water was forcedly administered per os every day. If kidney diseases are aggravated, the rat will die of uremia. Thus, the survival time was observed as comprehensive indication of the improvement effect on the kidney diseases. The observation period was eight weeks. Thus if all rats survived, the average survival time is eight weeks and it is an upper limit.

[3] = biological target: T2, angiotensin II receptor subtype 1 (AT1) (Oryctolagus cuniculus, UniProt P34976); experiment: Binding assay, angiotensin II receptor subtype 1 (AT1); set-up: species or system rabbit (adrenal glands); details: for IC50: tracer 3H angiotensin II, room temperature 3 hours, read-out: IC50 AT1; for inhibition at 100 µM: AT1, rabbit adrenal glands
T2 construct: receptor: from adrenal glands in rabbits; from tissue; host or cells: rabbit adrenal glands
T2 sequence (P34976 1-359): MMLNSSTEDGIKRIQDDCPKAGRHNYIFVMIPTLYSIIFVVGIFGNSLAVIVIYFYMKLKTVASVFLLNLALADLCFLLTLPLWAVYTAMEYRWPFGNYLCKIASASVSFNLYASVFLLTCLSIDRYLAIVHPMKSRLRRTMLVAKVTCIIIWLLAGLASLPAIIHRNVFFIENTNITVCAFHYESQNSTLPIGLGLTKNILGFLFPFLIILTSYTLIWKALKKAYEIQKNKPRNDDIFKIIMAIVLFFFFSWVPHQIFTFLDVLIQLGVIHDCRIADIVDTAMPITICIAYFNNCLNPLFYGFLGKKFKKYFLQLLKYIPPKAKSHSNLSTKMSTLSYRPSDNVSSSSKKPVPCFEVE
Method: as §1, §2, §3, §4

[4] = tested on: kidney disease model rats; experiment: Renal function indicatory value (action to kidney diseases); assay type: in vivo, Sprague-Dawley female rats; details: 20 mg/kg/day per os, two weeks; for Creatinine clearance: 24 hours urine, control 0.20; for Creatinine / Urea nitrogen: serum; for Creatinine: control 2.0; for Urea nitrogen: control 100
Method: The kidney disease model rats were prepared as in Example 115. Twenty-five groups (8 rats per group) were sleeked in a manner so that there were no major differences between each group in the serum creatinine value and the urea nitrogen value indicating renal function. The rats in each group were allowed to freely take up feed and water. […] To the rats in the control group, only water was forcedly administered per os every day. After two weeks, 0.2 ml of blood was collected from the carotid artery of the rat under anesthesia, and centrifuged to obtain serum. Using 25 μl of the serum, serum creatinine (Scr) was measured by a creatinine analytical instrument (Beckman). Using 10 μl of the serum, urea nitrogen (BUN) was measured by a BUN analytical instrument (Beckman). Creatinine clearance was evaluated as follows:
After serum creatinine measurement, rats were placed in urinary metabolic cages for 24 hours to collect urine. Urinary creatine concentration (Ucr) was measured by a creatinine analytical instrument, and total volume of urination (Uvol) was also measured. Creatinine clearance (CCr) was calculated by the following formula: [formula]

[5] = tested on: kidney disease model rats; experiment: Action to depress blood pressure (tail cuff method); assay type: in vivo, Sprague-Dawley female rats; details: systolic, average, 20 mg/kg per os, two days from administration; control (water) 203
Method: The compounds of the present invention and the reference substance were forcedly administered per os to kidney disease model rats, and the action to depress blood pressure was observed. The kidney disease model rats were prepared by ligature of branches of renal artery in accordance with the conventional method, that is, the left hilum renalis of Sprague-Dawley female rats was exposed under anesthesia, and one of four secondary branches of renal artery was left unligated, while the remaining three branches were ligated, respectively. After a week, the hilum renalis (artery, vein, and ureter) of the right kidney were further ligated to thereby prepare the rats whose renal function was lowered to approximately 1/8 of the normal function. Each group consisted of eight rats. The drugs to be tested (20 mg/kg) were administered to each administering group, and only water was administered to control group. After two days from the administration, the systolic blood pressure was measured by the tail cuff method using a blood pressure measuring apparatus (UR5000; Ueda).

mice = experiment: Acute toxicity, single oral dose; assay type: in vivo
Method: Five-week-old ICR female mice (5 mice per group) were bred for acclimation for a week. Then, the compounds of the present invention were dissolved or dispersed in an aqueous solution of 0.5% methylcellulose, and orally administered to the mice in a single dosage (500 mg/kg).

Compound	inhibition at 100 µM [1] [%]	Average survival time [2] [weeks]	IC50 [3] [µM]	Creatinine clearance [4] [mL/min]	Creatinine [4] [mg/dL]	Urea nitrogen [4] [mg/dL]	Blood pressure [5] [mmHg]	Number of deaths/number of survivals (mice; mouse, in vivo, po, 500 mg/kg)	inhibition at 100 µM [3] [%]	Number of deaths/number of survivals (mice; mice, single oral 500 mg/kg, observed for 6 days, 5 per group)
CCCCC(=O)N(Cc1ccc(-c2ccccc2-c2nn[nH]n2)cc1)c1cc(C(=O)N2CCOCC2)ccc1NC(C)=O [Compound No. 592, 4-acetamido-3-N-[[[2'-(1H-tetrazol-5-yl)biphenyl-4-yl]methyl]valeramido]benzoic acid morpholide]	0	7.0	4.9	0.33	1.7	76	202	0/5		
CCCCCN(C)c1c(NCc2ccc(-c3ccccc3-c3nn[nH]n3)cc2)cc(S(=O)(=O)N2CCOCC2)cc1NC(=O)CCc1ccccc1 [Compound No. 599, 4-[[4-(N-n-amyl-N-methyl)amino-3-[[2'-(1H-tetrazol-5-yl)biphenyl-4-yl]methyl]amino-5-(3-phenylpropionamido)benzene]sulfonyl]morpholine]	0	7.0		0.35	1.5	73	200	0/5	38	
CCCCCN(C)c1c(NCc2ccc(C(=O)O)cc2)cc(S(=O)(=O)N2CCOCC2)cc1NC(=O)C(c1ccccc1)c1ccccc1 [Compound No. 598, 4-[[4-(N-n-amyl-N-methyl)amino-3-[(4-carboxylphenyl)methyl]amino-5-(diphenylacetamido)benzene]sulfonyl]morpholine]	0	7.2		0.35	1.6	80	202	0/5	36	
CCCCCN(C)c1c(NCc2ccc(-c3ccccc3-c3nn[nH]n3)cc2)cc(C(=O)N2CCOCC2)cc1NC(=O)C(c1ccccc1)c1ccccc1 [Compound No. 593, 4-(N-n-amyl-N-methyl)amino-5-(diphenylacetamido)-3-[[2'-(1H-tetrazol-5-yl)biphenyl-4-yl]methylamino]benzoic acid morpholide]	0	7.1		0.31	1.6	80	200	0/5	36	
CCCCCN(Cc1ccc(C(=O)O)cc1)c1cc(C(=O)N2CCOCC2)ccn1 [Compound No. 535, 2-[N-n-amyl-N-(4-carboxyphenyl)methyl]aminoisonicotinic acid morpholide]	0	7.6	3.8	0.38	1.5	72	195	0/5		
CCCCCN(C)c1ccc(S(=O)(=O)N2CCOCC2)cc1NCc1ccc(-c2ccccc2-c2nn[nH]n2)cc1 [Compound No. 595, 4-[[4-(N-n-amyl-N-methyl)amino-3-[[2'-(1H-tetrazol-5-yl)biphenyl-4-yl]methyl]aminobenzene]sulfonyl]morpholine]	0	7.6		0.38	1.5	73	198	0/5	41	
CCCCCN(C)c1ccc(C(=O)N2CCOCC2)cc1NCc1ccc(C(=O)O)cc1 [Compound No. 41, 4-(N-n-amyl-N-methyl)amino-3-[(4-carboxyphenyl)methyl]aminobenzoic acid morpholide]	0	7.6		0.36	1.6	72	195	0/5	26	
CCCCC(=O)Nc1ccc(C(=O)N2CCOCC2)cc1N(Cc1ccc(-c2ccccc2-c2nn[nH]n2)cc1)Cc1ccc(-c2ccccc2-c2nn[nH]n2)cc1 [Compound No. 594, 3-[di-[2'-(1H-tetrazol-5-yl)biphenyl-4-yl]methylamino]-4-valeramidobenzoicacid morpholide]	0	6.5	32	0.30	1.7	77	194			0/5
CCCCC(=O)N(Cc1ccc(C(=O)O)cc1)c1cc(C(=O)N2CCOCC2)ccc1C [Compound No. 278, 4-methyl-3-N-[[4-(carboxyphenyl)methyl]valeramido]benzoic acid morpholide]	0	7.0		0.36	1.8	73	198	0/5	4	
